# Results published in patent US20260337153A1, “IONIZABLE AMINE LIPIDS” (Intellia Therapeutics, Inc., priority 2023, published 2026).
# Tested on: rat TTR gene
# Assay: In vivo editing of TTR in rat liver after LNP delivery (NGS, % editing)
# Design: species or system rat (Sprague-Dawley)
# Details: Experiment 4, 0.1 mpk, LNP with PEG2K-DMG
# Protocol: LNPs were prepared using various amine lipids in a 4-component lipid system consisting of an ionizable lipid (e.g., an amine lipid), DSPC, cholesterol and a PEG lipid (e.g., PEG2K-DMG, C13 Ether, C14 Ether). In assays for percent liver editing in rats, Cas9 mRNA and chemically modified sgRNA targeting a rat sequence were formulated in LNPs, at either a 1:1 w/w ratio or a 1:2 w/w sgRNA:Cas9 mRNA ratio.
# The lipid components were dissolved in 100% ethanol with the lipid component molar ratios described below. The chemically modified sgRNA and Cas9 mRNA were combined and dissolved in 25 mM citrate, 100 mM NaCl, pH 5.0, resulting in a concentration of total RNA cargo of approximately 0.45 mg/mL. The LNPs were formulated with an N:P ratio of about 6, with the ratio of chemically modified sgRNA:Cas9 mRNA at either a 1:1 or 1:2 w/w ratio as described below.
# The LNPs were formed by an impinging jet mixing of the lipid in ethanol with two volumes of RNA solution and one volume of water. First, the lipid in ethanol is mixed through a mixing cross with the two volumes of RNA solution. Then, a fourth stream of water is mixed with the outlet stream of the cross through an inline tee. (See, e.g., WO2016010840, FIG. 2). The LNPs were held for 1 hour at room temperature, and further diluted with water (approximately 1:1 v/v). Diluted LNPs were buffer exchanged into 50 mM Tris, 45 mM NaCl, 5% (w/v) sucrose, pH 7.5 (TSS) and concentrated as needed by methods known in the art. The resulting mixture was then filtered using a 0.2 μm sterile filter. The final LNP was stored at 4° C. or −80° C. until further use.
# Sprague-Dawley female rats, ranging from 6-10 weeks of age were used in each study. Animals were weighed and dosed based on individual body weight measured the morning of dosing. LNPs were dosed via the lateral tail vein in a volume of 2 mL per kilogram of animal body weight. The animals were periodically observed for adverse effects for at least 24 hours post dose.
# For studies measuring in vivo editing in liver, Sprague-Dawley female rats were dosed at 0.1 mpk or 0.03 mpk, unless otherwise noted. Animals were euthanized at 6 or 7 days by carbon dioxide asphyxiation and a heart clip or by ex sanguination via cardiac puncture under isoflourane anesthesia. Blood was collected into serum separator tubes. Liver tissue was collected. Genomic DNA was isolated from the liver tissue for editing measurement by Next-Generation Sequencing (NGS).
# In brief, to quantitatively determine the efficiency of editing at the target location in the genome, genomic DNA was isolated and deep sequencing was utilized to identify the presence of insertions and deletions introduced by gene editing.
# PCR primers were designed around the target site (e.g., TTR), and the genomic area of interest was amplified. Additional PCR was performed according to the manufacturer's protocols (Illumina) to add the necessary chemistry for sequencing. The amplicons were sequenced on an Illumina MiSeq instrument. The reads were aligned to the […] after eliminating those having low quality scores. The resulting files containing the reads were mapped to the reference genome (BAM files), where reads that overlapped the target region of interest were selected and the number of wild type reads versus the number of reads which contain an insertion, substitution, or deletion was calculated.
# The editing percentage (e.g., the “indel efficiency” or “percent indels” or “% editing” or “% indel”) can be defined as the total number of sequence reads with insertions or deletions over the total number of sequence reads, including wild type.
# In vivo editing efficiency for materials delivered with formulations including various amine lipid (or ionizable lipid) compounds in Experiments 1 through 14 as described in Tables 3 and 4 was assessed. Editing was measured using G000534 (SEQ ID NO: 5) which targets the rat TTR gene. […]
row,SMILES,Mean % editing [%]
1,"CCCCC/C=C\C/C=C\CCCCCCCC(=O)OCC(CCCCCCCCC(=O)OC(CCCCCCCC)CCCCCCCC)COC(=O)OCCCN(C)CC (stereo not drawn) [Compound 11, 2-((((3-(ethyl(methyl)amino)propoxy)carbonyl)oxy)methyl)-11-(heptadecan-9-yloxy)-11-oxoundecyl (9Z,12Z)-octadeca-9,12-dienoate]",14.0
2,"CCCCC/C=C\C/C=C\CCCCCCCC(=O)OCC(CCCCC(=O)OC(CCCC)CCCC)COC(=O)NCCN(CC)CC (stereo not drawn) [Compound 12, 2-((((2-(diethylamino)ethyl)carbamoyl)oxy)methyl)-7-(nonan-5-yloxy)-7-oxoheptyl (9Z,12Z)-octadeca-9,12-dienoate]",11.6
3,"CCCCC/C=C\C/C=C\CCCCCCCC(=O)OCC(CCCCC(=O)OC(CCCC)CCCC)COC(=O)OCCCN(C)CC (stereo not drawn) [Compound 13, 2-((((3-(ethyl(methyl)amino)propoxy)carbonyl)oxy)methyl)-7-(nonan-5-yloxy)-7-oxoheptyl (9Z,12Z)-octadeca-9,12-dienoate]",20.9
4,"CCCCC/C=C\C/C=C\CCCCCCCC(=O)OCC(CCCCC(=O)OC(CCCC)CCCC)COC(=O)OCCCN(CC)CC (stereo not drawn) [Compound 14, 2-((((3-(diethylamino)propoxy)carbonyl)oxy)methyl)-7-(nonan-5-yloxy)-7-oxoheptyl (9Z,12Z)-octadeca-9,12-dienoate]",16.8

# Same assay, conditions: Experiment 5, 0.1 mpk, LNP with PEG2K-DMG
row,SMILES,Mean % editing [%]
1,"CCCCC/C=C\C/C=C\CCCCCCCC(=O)OCC(CCCCCCCCC(=O)OC(CCCCCCCC)CCCCCCCCC)COC(=O)CCC(CCCCCCCC)OC(=O)NCCN(C)CC (stereo not drawn) [Compound 24, 3-methyl-15-(9-(octadecan-9-yloxy)-9-oxononyl)-9-octyl-7,12-dioxo-8,13-dioxa-3,6-diazahexadecan-16-yl (9Z,12Z)-octadeca-9,12-dienoate]",3.6
2,"CCCCC/C=C\C/C=C\CCCCCCCC(=O)OCC(CCCCCCCCC(=O)OC(CCCCCCCC)CCCCCCCCC)COC(=O)CCC(CCCCCCCC)OC(=O)NCCN1CCCC1 (stereo not drawn) [Compound 25, 11-(octadecan-9-yloxy)-11-oxo-2-(((4-(((2-(pyrrolidin-1-yl)ethyl)carbamoyl)oxy)dodecanoyl)oxy)methyl)undecyl (9Z,12Z)-octadeca-9,12-dienoate]",17.0
3,"CCCCC/C=C\C/C=C\CCCCCCCC(=O)OCC(CCCCCCCCC(=O)OC(CCCCCCCC)CCCCCCCCC)COC(=O)CCC(CCCC)OC(=O)NCCN(C)CC (stereo not drawn) [Compound 26, 9-butyl-3-methyl-15-(9-(octadecan-9-yloxy)-9-oxononyl)-7,12-dioxo-8,13-dioxa-3,6-diazahexadecan-16-yl (9Z,12Z)-octadeca-9,12-dienoate]",41.9
4,"CCCCC/C=C\C/C=C\CCCCCCCC(=O)OCC(CCCCCCCCC(=O)OC(CCCCCCCC)CCCCCCCCC)COC(=O)CCC(CCCC)OC(=O)NCCN1CCCC1 (stereo not drawn) [Compound 27, 11-(octadecan-9-yloxy)-11-oxo-2-(((4-(((2-(pyrrolidin-1-yl)ethyl)carbamoyl)oxy)octanoyl)oxy)methyl)undecyl (9Z,12Z)-octadeca-9,12-dienoate]",55.3

# Same assay, conditions: Experiment 6, 0.1 mpk, LNP with PEG2K-DMG
row,SMILES,Mean % editing [%]
1,"CCCCC/C=C\C/C=C\CCCCCCCCC(COC(=O)CCCCCC(=O)OC(CCCCCCCC)CCCCCCCC)COC(=O)NCCN(CC)CC (stereo not drawn) [Compound 23, 1-((11Z,14Z)-2-((((2-(diethylamino)ethyl)carbamoyl)oxy)methyl)icosa-11,14-dien-1-yl) 7-(heptadecan-9-yl) heptanedioate]",55.3

# Same assay, conditions: Experiment 8, 0.1 mpk, LNP with PEG2K-DMG
row,SMILES,Mean % editing [%]
1,"CCCCCCCCOC(CCC(=O)OCC(COC(=O)CCC(OCCCCCCCC)OCCCCCCCC)COC(=O)NCCN(CC)CC)OCCCCCCCC [Compound 22, 2-((((2-(diethylamino)ethyl)carbamoyl)oxy)methyl)propane-1,3-diyl bis(4,4-bis(octyloxy)butanoate)]",61.3

# Same assay, conditions: Experiment 9, 0.1 mpk, LNP with PEG2K-DMG
row,SMILES,Mean % editing [%]
1,"CCCCC/C=C\C/C=C\CCCCCCCC(=O)OCC(CCCCC(=O)OC(CCCCCCCC)CCCCCCCC)COC(=O)OCCCN(CC)CC (stereo not drawn) [Compound 15, 2-((((3-(diethylamino)propoxy)carbonyl)oxy)methyl)-7-(heptadecan-9-yloxy)-7-oxoheptyl (9Z,12Z)-octadeca-9,12-dienoate]",15.1
2,"CCCCC/C=C\C/C=C\CCCCCCCC(=O)OCC(CCCCCCC(=O)OC(CCCCCCCC)CCCCCCCC)COC(=O)OCCCN(CC)CC (stereo not drawn) [Compound 16, 2-((((3-(diethylamino)propoxy)carbonyl)oxy)methyl)-9-(heptadecan-9-yloxy)-9-oxononyl (9Z,12Z)-octadeca-9,12-dienoate]",14.9
3,"CCCCC/C=C\C/C=C\CCCCCCCC(=O)OCC(CCCCC(=O)OC(CCCCCC)CCCCCC)COC(=O)OCCCN(CC)CC (stereo not drawn) [Compound 17, 2-((((3-(diethylamino)propoxy)carbonyl)oxy)methyl)-7-oxo-7-(tridecan-7-yloxy)heptyl (9Z,12Z)-octadeca-9,12-dienoate]",35.8
4,"CCCCC/C=C\C/C=C\CCCCCCCC(=O)OCC(CCCCCCC(=O)OC(CCCCCC)CCCCCC)COC(=O)OCCCN(CC)CC (stereo not drawn) [Compound 18, 2-((((3-(diethylamino)propoxy)carbonyl)oxy)methyl)-9-oxo-9-(tridecan-7-yloxy)nonyl (9Z,12Z)-octadeca-9,12-dienoate]",34.4
5,"CCCCC/C=C\C/C=C\CCCCCCCC(=O)OCC(CCCCCCCCC(=O)OC(CCCCCC)CCCCCC)COC(=O)OCCCN(CC)CC (stereo not drawn) [Compound 19, 2-((((3-(diethylamino)propoxy)carbonyl)oxy)methyl)-11-oxo-11-(tridecan-7-yloxy)undecyl (9Z,12Z)-octadeca-9,12-dienoate]",14.4
6,"CCCCC/C=C\C/C=C\CCCCCCCC(=O)OCC(CCCCCCC(=O)OC(CCCC)CCCC)COC(=O)OCCCN(CC)CC (stereo not drawn) [Compound 20, 2-((((3-(diethylamino)propoxy)carbonyl)oxy)methyl)-9-(nonan-5-yloxy)-9-oxononyl (9Z,12Z)-octadeca-9,12-dienoate]",32.0

# Same assay, conditions: Experiment 11, 0.1 mpk, LNP with PEG2K-DMG
row,SMILES,Mean % editing [%]
1,"CCCCC/C=C\C/C=C\CCCCCCCCC(COC(=O)CCCCCC(=O)OC(CCCCCCCC)CCCCCCCC)COC(=O)NCCN(CC)CC (stereo not drawn) [Compound 23, 1-((11Z,14Z)-2-((((2-(diethylamino)ethyl)carbamoyl)oxy)methyl)icosa-11,14-dien-1-yl) 7-(heptadecan-9-yl) heptanedioate]",54.0

# Same assay, conditions: Experiment 12, 0.04 mpk, LNP with PEG2K-DMG
row,SMILES,Mean % editing [%]
1,"CCCCCCCCC(CCCCCCCC)OC(=O)CCCC(=O)OCC(COC(=O)CCCC(=O)OC(CCCCCCCC)CCCCCCCC)COC(=O)NCCN1CCCCC1 [Compound 28, di(heptadecan-9-yl) O,O′-(2-((((2-(piperidin-1-yl)ethyl)carbamoyl)oxy)methyl)propane-1,3-diyl) diglutarate]",11.0
2,"CCCCCCCCC(CCCCCCCC)OC(=O)CCCC(=O)OCC(COC(=O)CCCC(=O)OC(CCCCCCCC)CCCCCCCC)COC(=O)NCCN1CCCC1 [Compound 29, di(heptadecan-9-yl) O,O′-(2-((((2-(pyrrolidin-1-yl)ethyl)carbamoyl)oxy)methyl)propane-1,3-diyl) diglutarate]",27.3
3,"CCCCCCCCC(CCCCCCCC)OC(=O)CCCC(=O)OCC(COC(=O)CCCC(=O)OC(CCCCCCCC)CCCCCCCC)COC(=O)OCCCN(C)CC [Compound 30, O,O′-(2-((((3-(ethyl(methyl)amino)propoxy)carbonyl)oxy)methyl)propane-1,3-diyl) di(heptadecan-9-yl) diglutarate]",12.6
4,"CCCCCCCCC(CCCCCCCC)OC(=O)CCCC(=O)OCC(COC(=O)CCCC(=O)OC(CCCCCCCC)CCCCCCCC)COC(=O)OCCCN(C)C [Compound 31, O,O′-(2-((((3-(dimethylamino)propoxy)carbonyl)oxy)methyl)propane-1,3-diyl) di(heptadecan-9-yl) diglutarate]",4.0
